Among the data in patent US8609656B2, “Heteroarylphenylurea derivative” (Chugai Seiyaku Kabushiki Kaisha, priority 2004, dated 2013) are IC50 and solubility values, retold here.

Series [1] relates to VEGF non-dependent human umbilical vein endothelial cells (HUVEC). Nature of the series: Cell growth inhibition test, VEGF non-dependent HUVEC. In kind it is cell-based. The settings on record: 72 hours, WST-1, read-out: HUVEC (VEGF Nondependence), 50% Growth Inhibition Concentration (IC50 value). How it is done:
(§1) Cell Growth Inhibition Test
(§2) With respect to the compounds relating to the present invention and the known compound (BAY 43-9006), cell growth inhibition activity was measured.
(§3) A sample compound was in-series diluted with dimethyl sulfoxide, and then was 1/50 diluted with a Ca^2+- and Mg^2+-free phosphate-bufferized physiological saline and its 20 μL was poured to a 96-well plate. […] Each of these cell suspensions was dividedly poured to the sample added plate in 180 μL/well and cultured in a 5% carbon dioxide incubator at 37° C. After 72 hours, 20 μL of WST-(HCT 116, a product of Dojin) or WST-1 (HUVEC, a product of Roche diagnostics) was added thereto to each well and the absorbance at 450 nm (reference wavelength: 650 nm) was measured. From the growth inhibition ratio of addition of the sample compound to no-addition of the sample compound as a reference, the 50% growth inhibition IC50) of the sample compound was calculated.
(§4) With respect to the group of representative compounds of the present invention, the IC50 values of HCT 116 and HUVEC (VEGF nondependent growth and VEGF dependent growth) are shown in Tables 5-1 to 5-3.
(Formazan colour is commonly taken as a measure of viable cells.)

In another series the test system is VEGF dependent HUVEC. Nature of the series: Cell growth inhibition test, VEGF dependent HUVEC. In kind it is cell-based. The settings on record: Homo sapiens, 20 ng/mL of VEGF, 72 hours, WST-1, read-out: HUVEC (VEGF Dependence), 50% Growth Inhibition Concentration (IC50 value). How it is done: as §1, §2, §3, §4
Series [2] relates to human colorectal cancer cell strain HCT 116. Nature of the series: Cell growth inhibition test, HCT 116. The series is classed as cell-based. The settings on record: 72 hours, read-out: HCT116, 50% Growth Inhibition Concentration (IC50 value). As to the method: as §1, §2, §3, §4
Series [3] can be described thus: Solubility to fasted state simulated intestinal fluid. In kind it is physicochemical. The settings on record: fassif, kinetic from dmso stock, fasted state simulated intestinal fluid (pH 6.5), 37° C. How it is done: Method of Measuring Solubility to Fasted State Simulated Intestinal Fluid
To a 96-well plate, 2 μL of a dimethyl sulfoxide solution of the compound relating to the present invention or that of the compound BAY 43-9006 was poured at one time, respectively, and fasted state simulated intestinal fluid (pH 6.5) was added 200 μL by 200 μL, and the plate was shaken at 37° C. for 20 hours. The solution was filtered with a membrane filter and 101 μL of the filtrate was transferred to an UV plate, and 100 μL of a mixed solution of ethanol:water=2:1 was added thereto. On the other hand, as a standard solution, 2 μL of a dimethyl sulfoxide solution was added to a solution containing 4 μL of dimethyl sulfoxide, 400 μL of ethanol and 200 μL of water and the obtained solution was transferred 101 μL by 101 μL to the UV plate and to this UV plate, the simulated fasting bile-containing intestinal juice (pH 6.5) was added 100 μL by 100 μL. The solubility was calculated by the following equation. Solubility=(absorbance of sample solution-blank)/(absorbance of standard solution-blank)×[…]
165 μL is a concentration of the standard solution.
Composition of Fasted State Simulated Intestinal Fluid
Fasted state simulated intestinal fluid was prepared in accordance with E. Galia et al., Pharm. Res., 698, 1998.
To about 90 mL of water, 161 mg of taurocholic acid, 59 mg of L-α-phosphatidylcholine, 0.39 g of potassium dihydrogenphosphate and 0.77 g of potassium chloride were added and the pH of the mixture solution […] and the mixture solution was filtered with a membrane filter.

By solubility is commonly meant the concentration that dissolves in the medium under given conditions. A lower solubility goes with little dissolved substance.

In brackets after ≈: the same amount, converted by molar mass. Structures can show the parent of a compound that is named as a salt.

For the molecule `O=C(Nc1ccc(-n2cnc3cnccc32)cc1)Nc1ccc(Cl)c(C(F)(F)F)c1` [Table 1, Compound 1, 1-(4-chloro-3-(trifluoromethyl)phenyl)-3-(4-imidazo[4,5-c]pyridin-1-ylphenyl)urea], the IC50 in series [1] was 2.1 µM; in the series on VEGF dependent HUVEC, 0.092 µM; in series [2] it was 1.2 µM.

Turning to `COCCNc1ncnc2c1ncn2-c1ccc(NC(=O)Nc2ccc(Cl)c(C(F)(F)F)c2)cc1.Cl` [Table 1, Compound 35, 1-(4-Chloro-3-(trifluoromethyl)phenyl)-3-{4-[6-(2-methoxy-ethylamino)purin-9-yl]phenyl}urea hydrochloride], the IC50 turned out to be 2.4 µM in series [1], 0.46 µM with VEGF dependent HUVEC and 2.8 µM in series [2]. Further, the solubility at 20 h in series [3] was 0.024 mg/mL.

In the case of `Nc1ncnc2c1ncn2-c1ccc(N(O)C(=O)Nc2ccc(Cl)c(C(F)(F)F)c2)cc1` [Table 1, Compound 49, 1-[4-(6-Aminopurin-9-yl)phenyl]-3-(4-chloro-3-(trifluoromethyl)phenyl)-1-hydroxyurea hydrochloride], the values for the IC50 (in series [1]; in the series with VEGF dependent HUVEC; in series [2]) were 4.1 µM, 0.19 µM and 7.3 µM, respectively.

Take `CNc1ncnc2c1ncn2-c1ccc(N(O)C(=O)Nc2ccc(Cl)c(C(F)(F)F)c2)cc1` [Table 1, Compound 53, 3-(4-Chloro-3-(trifluoromethyl)phenyl)-1-hydroxy-1-[4-(6-(methylamino)pruin-9-yl)phenyl]urea]: the IC50 in series [1] was found to be 2.8 µM; in the series with VEGF dependent HUVEC it was 0.44 µM; in series [2], 3.4 µM.

As for `CNc1ncnc2c1ncn2-c1ccc(NC(=O)Nc2cccc(C(F)(F)F)c2)cc1` [Table 2, Compound 19, 1-[4-(6-(Methylamino)purin-9-yl)phenyl]-3-(3-(trifluoro-methyl)phenyl)urea], the IC50 came to 1.9 µM in series [1], 0.057 µM in the series with VEGF dependent HUVEC and 1.1 µM in series [2].

Regarding `CNc1ncnc2c1ncn2-c1ccc(NC(=O)Nc2ccc(N(C)C)c(C(F)(F)F)c2)cc1` [Table 2, Compound 42, 1-(4-Dimethylamino-3-(trifluoromethyl)phenyl)-3-[4-(6-(methylamino)purin-9-yl)phenyl]urea], the IC50 turned out to be 4 µM in series [1], 0.056 µM in the series with VEGF dependent HUVEC and 1.8 µM in series [2].

With `Nc1ncnc2c1ncn2-c1ccc(NC(=O)Nc2cc(Br)cc(C(F)(F)F)c2)cc1` [Table 2, Compound 43], the results for the IC50 (in series [1]; in the series on VEGF dependent HUVEC; in series [2]) were 3.8 µM, 0.15 µM and 1.8 µM, respectively.

Regarding `CNc1ncnc2c1ncn2-c1ccc(NC(=O)Nc2ccc(CN3CCN(C)CC3)c(C(F)(F)F)c2)cc1` [Table 2, Compound 46, 1-[4-(6-(Methylamino)purin-9-yl)phenyl]-3-[4-(4-methylpiperazin-1-ylmethyl)-3-(trifluoromethyl)phenyl]urea], the IC50 in series [1] stood at 0.13 µM; in the series with VEGF dependent HUVEC, 0.0025 µM; in series [2], 0.24 µM.

Take `CNc1ncnc2c1ncn2-c1ccc(NC(=O)Nc2ccc(CN3CCOCC3)c(C(F)(F)F)c2)cc1` [Table 2, Compound 47, 1-[4-(6-(Methylamino)purin-9-yl)phenyl]-3-(4-morpholin-4-ylmethyl-3-(trifluoromethyl)phenyl)urea]: the IC50 was determined as 0.7 µM in series [1], 0.029 µM with VEGF dependent HUVEC and 0.9 µM in series [2].

As to `CNc1ncnc2c1ncn2-c1ccc(NC(=O)Nc2cc(N(C)C)cc(C(F)(F)F)c2)cc1` [Table 2, Compound 48, 1-(3-Dimethylamino-5-(trifluoromethyl)phenyl)-3-[4-(6-(methylamino)purin-9-yl)phenyl]urea], the IC50 came to 3.7 µM in series [1], 0.28 µM in the series on VEGF dependent HUVEC and 2.4 µM in series [2].

As for `CNc1ncnc2c1ncn2-c1ccc(NC(=O)Nc2ccc(OCCN(C)C)c(C(F)(F)F)c2)cc1` [Table 2, Compound 52, 1-[4-(2-Dimethylaminoethoxy)-3-(trifluoromethyl)phenyl]-3-[4-(6-(methylamino)purin-9-yl)phenyl]urea], the IC50 in series [1] was 3.8 µM; in the series on VEGF dependent HUVEC, 0.27 µM; in series [2], 3.8 µM. This molecule also came in with a solubility at 20 h in series [3] of 0.126 mg/mL (≈ 245 µM).

`CNc1ncnc2c1ncn2-c1ccc(NC(=O)Nc2ccc(OCCN3CCOCC3)c(C(F)(F)F)c2)cc1` [Table 2, Compound 53, 1-[4-(6-(Methylamino)purin-9-yl)phenyl]-3-[4-(2-morpholin-4-yl-ethoxy)-3-(trifluoromethyl)phenyl]urea]: the IC50 in series [1] was 1.7 µM; in the series with VEGF dependent HUVEC it was 0.65 µM; in series [2], 1.9 µM.

For the molecule `CNc1ncnc2c1ncn2-c1ccc(NC(=O)Nc2ccc(OC3CCN(C)CC3)c(C(F)(F)F)c2)cc1` [Table 2, Compound 62, 1-[4-(6-(Methylamino)purin-9-yl)-phenyl]-3-[4-(1-methylpiperidin-4-yloxy)-3-(trifluoromethyl)phenyl]-urea], the figures for the IC50 (in series [1]; with VEGF dependent HUVEC; in series [2]) were 0.9 µM, 0.011 µM and 0.7 µM, respectively. The molecule further came in with a solubility at 20 h in series [3] of 0.035 mg/mL (≈ 64.7 µM).

Consider `CNc1ncnc2c1ncn2-c1ccc(NC(=O)Nc2ccc(CCCN(C)C)c(C(F)(F)F)c2)cc1` [Table 2, Compound 74], for which the IC50 came to 0.9 µM in series [1], 0.083 µM with VEGF dependent HUVEC and 1.2 µM in series [2].

For the molecule `CNc1ncnc2c1ncn2-c1ccc(NC(=O)Nc2ccc(CCCN3CCOCC3)c(C(F)(F)F)c2)cc1` [Table 2, Compound 76, 1-[4-(6-(Methylamino)purin-9-yl)phenyl]-3-[4-[3-morpholin-4-yl-propyl]-3-(trifluoromethyl)phenyl]-urea], the results for the IC50 (in series [1]; in the series on VEGF dependent HUVEC; in series [2]) were 1 µM, 0.057 µM and 0.9 µM, respectively.

Regarding `CCN1CCN(Cc2ccc(NC(=O)Nc3ccc(-n4cnc5c(NC)ncnc54)cc3)cc2C(F)(F)F)CC1` [Table 3, Compound 14, 1-[4-(4-Ethyl-piperazin-1-ylmethyl)-3-(trifluoromethyl)phenyl]-3-[4-(6-(methylamino)purin-9-yl)phenyl]urea], the IC50 in series [1] was determined as 0.2 µM; in the series with VEGF dependent HUVEC, 0.004 µM; in series [2], 0.3 µM.

Turning to `CN1CCN(Cc2ccc(NC(=O)Nc3ccc(-n4cnc5cnccc54)cc3)cc2C(F)(F)F)CC1` [Table 3, Compound 18, 1-(4-Imidazo[4,5-c]pyridin-1-yl-phenyl)-3-[4-(4-methyl-piperazin-1-ylmethyl)-3-(trifluoromethyl)phenyl]urea], the values for the IC50 (in series [1]; in the series on VEGF dependent HUVEC; in series [2]) were 3.1 µM, 0.026 µM and 2.7 µM, respectively.

With `CNc1ncnc2c1ncn2-c1ccc(NC(=O)Nc2ccc(CN3CCN(C(C)C)CC3)c(C(F)(F)F)c2)cc1` [Table 3, Compound 28, 1-[4-(4-Isopropyl-piperazin-1-ylmethyl)-3-(trifluoromethyl)phenyl]-3-[4-(6-(methylamino)purin-9-yl)phenyl]urea], the IC50 was 0.3 µM in series [1], 0.008 µM in the series on VEGF dependent HUVEC and 0.2 µM in series [2].

With `CNc1ncnc2c1ncn2-c1ccc(NC(=O)Nc2ccc(OCCOC)c(C(F)(F)F)c2)cc1` [Table 3, Compound 41, 1-[4-(2-Methoxy-ethoxy)-3-(trifluoromethyl)phenyl]-3-[4-(6-(methylamino)purin-9-yl)phenyl]urea], the IC50 in series [1] came to 0.9 µM; in the series with VEGF dependent HUVEC it was 0.076 µM; in series [2], 0.8 µM.

`CNc1ncnc2c1ncn2-c1ccc(NC(=O)Nc2cc(CCCN3CCOCC3)cc(C(F)(F)F)c2)cc1` [Table 3, Compound 48, 1-[4-(6-(Methylamino)purin-9-yl)phenyl]-3-[3-(3-morpholin-4-yl-propyl)-5-(trifluoromethyl)phenyl]-urea]: the IC50 turned out to be 3.2 µM in series [1], 0.039 µM in the series on VEGF dependent HUVEC and 2.5 µM in series [2].
